The values below come from patent US20230339871A1, “COMPOUNDS AND METHODS OF MODULATING 17B-HYDROXYSTEROID DEHYDROGENASE TYPE 13” (METREA BIOSCIENCES, INC., priority 2020, published 2023).

The test system of one data set is IL-8. The data set can be described thus: IL-8 gene expression in HepG2 cells overexpressing HSD17B13 under fatty acid challenge. The class given is cell-based, human. How it is done: (§1) To examine the effect of HSD17B13 inhibitors on inflammatory cytokine expression HepG2 cells were exposed to various concentrations of HSD17B13 inhibitors. Briefly, HepG2 cells, an immortalized human liver cancer cell line, were modified to overexpress HSD17B13. Cells were grown in EMEM (ATCC) with 10% FBS and penicillin/streptomycin. One day prior to transfection 750,000 cells were plated per well in a 6 well plate and cultured overnight. […] of pCMV6-Entry-HSD17B13 or empty vector (Origene) were transfected using Lipofectamine 3000 (Invitrogen) and the cells were cultured for 24 hours. Cells were split into selection media ([…] G418 (Gibco)) and a stable pool was established and verified by qPCR and western blotting using an anti-Flag antibody (Genscript). HepG2 cells overexpressing HSD17B13 or empty vector control, were seeded at 400,000 cells per well in 12 well plates and cultured overnight. Media was replaced with serum-free EMEM and cultured an additional night. […]
(§2) […] RNA quality and concentration were determined on a Nanodrop. cDNA was synthesized from 1 μg RNA using iScript reverse transcription supermix (Biorad) and rtPCR performed with 1 μl cDNA using SsoAdvanced Universal Probes Supermix (Biorad). […]

A further data set relates to IL-32. The data set can be described thus: IL-32 gene expression in HepG2 cells overexpressing HSD17B13 under fatty acid challenge. It counts as cell-based, human. As to the method: To examine the effect of HSD17B13 inhibitors on inflammatory cytokine expression HepG2 cells were exposed to various concentrations of HSD17B13 inhibitors. Briefly, HepG2 cells, an immortalized human liver cancer cell line, were modified to overexpress HSD17B13. Cells were grown in EMEM (ATCC) with 10% FBS and penicillin/streptomycin. One day prior to transfection 750,000 cells were plated per well in a 6 well plate and cultured overnight. […] of pCMV6-Entry-HSD17B13 or empty vector (Origene) were transfected using Lipofectamine 3000 (Invitrogen) and the cells were cultured for 24 hours. Cells were split into selection media ([…] G418 (Gibco)) and a stable pool was established and verified by qPCR and western blotting using an anti-Flag antibody (Genscript). HepG2 cells overexpressing HSD17B13 or empty vector control, were seeded at 400,000 cells per well in 12 well plates and cultured overnight. Media was replaced with serum-free EMEM and cultured an additional night. A 12 mM fatty acid stock of oleic acid/palmitate at a 2:1 ratio was prepared in 10% fatty acid free BSA (Sigma) by combining 8 mM oleic acid and 4 mM palmitate and rotating overnight at 30° C. The solution was then sonicated for an additional 45 minutes to solubilize.
[…] The cells were lysed in RLT buffer and RNA purified using a Qiagen RNeasy mini kit. RNA quality and concentration were determined on a Nanodrop. cDNA was synthesized from 1 μg RNA using iScript reverse transcription supermix (Biorad) and rtPCR performed with 1 μl cDNA using SsoAdvanced Universal Probes Supermix (Biorad). Taqman probes (Thermo Fisher) were used to look at effects of fatty acids and HSD17B13 inhibitors on IL-8 and IL-32 gene expression using GAPDH as an endogenous control.

The test system of a further data set is HepG2 cells. The data set can be described thus: Toxicity to HepG2 cells in the cytokine expression experiment. The class given is cell-based, human. The following applies: 30 μM. How it is done: as §1, §2
The target in data set [1] is T1, recombinant human full-length HSD17B13 protein (Homo sapiens, UniProt Q7Z5P4).
T1 construct: recombinant human full-length HSD17B13 protein; 6xHis (C); made in house; host or cells: HEK293E-253/FH
T1 sequence (Q7Z5P4 20-300): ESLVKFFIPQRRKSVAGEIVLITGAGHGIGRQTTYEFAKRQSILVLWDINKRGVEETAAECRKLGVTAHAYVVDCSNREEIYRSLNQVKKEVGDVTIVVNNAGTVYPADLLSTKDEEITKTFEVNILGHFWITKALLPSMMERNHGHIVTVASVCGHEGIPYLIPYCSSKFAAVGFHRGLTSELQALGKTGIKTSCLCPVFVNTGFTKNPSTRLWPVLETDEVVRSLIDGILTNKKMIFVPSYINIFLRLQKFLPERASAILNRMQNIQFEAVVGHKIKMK
The data set can be described thus: HSD17B13 96 luminescence inhibition assay (NAD(P)H-Glo). The class given is biochemical. How it is done:
Compounds of the present disclosure were tested for inhibition of HSD17B13 using the following protocol. Briefly, recombinant human full-length HSD17B13 protein with a 6X-C-terminal His tag was expressed in cell line HEK293E-253/FH and purified using Ni^2+-affinity purification. Enzymatic activity was determined through the production of NADH using the NAD(P)H-Glo Detection System (Promega). The inhibitory activity of test compounds was determined in reactions performed at 30° C. in assay buffer consisting of 25 mM EPPS (8.0), 125 mM NaCl, 0.03% Triton X-100, 0.03% BSA, with […] steroid substrate (1,3,5(10), 7-estratetraen-3, 17b-diol (Steraloids E0580)) added from a 2.5 mM DMSO stock and 500 mM NAD. The final percentage of DMSO was 4.5%. After a one-hour incubation, a 20% volume of luciferase Glo-reagent was added and light units captured on a Victor V Plate Reader (Perkin Elmer).
Concentration-response curves for inhibitors were normalized to control samples containing enzyme only (negative control) and sample without enzyme (positive control). 50% inhibition (IC50) values were determined using a nonlinear least squares fit of the data to a four-parameter equation using Prism 6.0 (GraphPad Software, San Diego).

For data set [2] the following is noted: RESOLVE-IT, NCT02704403; cited from earlier work.
The mark [3] stands for this setting: 3 µM, 10 µM, or 30 µM, saturated fatty acid NASH challenge.
[4] abbreviates: 3-hour exposure to 3 μM, 10 μM, or 30 μM, fold change relative to untreated cells.

In the case of `CS(=O)(=O)c1cccc(CN2C(=O)S/C(=C\c3c(F)cc(F)c(O)c3F)C2=O)c1` [Compound 5, (Z)-3-(3-(methylsulfonyl)benzyl)-5-(2,4,6-trifluoro-3-hydroxybenzylidene) thiazolidine-2,4-dione], in the data set on IL-8 (setting [3]), the “expression of IL-8 (FIG. 1A)” value was “decreased expression”. For the same compound, the “relative expression levels of IL-8” value with IL-8 (setting [4]) is given as “decreased”. Besides, the “reduction in IL-32 expression” value with IL-32 (3 μM dose) is listed as 60-70%. Further, in the data set with IL-32 (setting [3]), the “expression of IL-32 (FIG. 1B)” value is listed as “decreased expression”. Also, the “relative expression levels of IL-32” value in the data set with IL-32 (setting [4]) is reported as “decreased”. In the data set with HepG2 cells, the “toxicity to the cells” value is recorded as “some toxicity”. For the same compound, the IC50 in data set [1] is at most 1 µM.

On to `CSc1ccc(C(=O)/C=C/c2cc(C)c(OC(C)(C)C(=O)O)c(C)c2)cc1` [Elafibranor], for which the “Status (as of May 2020)” value in data set [2] is given as “Completed - failed”.

For `CS(=O)(=O)Nc1cccc(CN2C(=O)S/C(=C\c3ccc(F)c(O)c3)C2=O)c1` [Compound 20, N-(3-{[(5Z)-5-[(4-fluoro-3-hydroxyphenyl)methylidene]-2,4-dioxo-1,3-thiazolidin-3-yl]methyl}phenyl)methanesulfonamide], the IC50 in data set [1] was over 5 µM.

Turning to `CS(=O)(=O)c1cccc(CN2C(=O)S/C(=C\c3ccc(F)c(O)c3)C2=O)c1` [Compound 12, (Z)-5-(4-fluoro-3-hydroxybenzylidene)-3-(3-(methylsulfonyl)benzyl)thiazolidine-2,4-dione], the IC50 in data set [1] was in the range of 1 to 5 µM.

In the case of `O=C1S/C(=C\c2c(F)ccc(O)c2F)C(=O)N1Cc1cccc(O)c1` [Compound 37, (Z)-5-(2,6-difluoro-3-hydroxybenzylidene)-3-(3-hydroxybenzyl)thiazolidine-2,4-dione], in data set [1], the IC50 was over 5 µM.

For the compound `O=C1S/C(=C\c2cc(O)c(F)c(F)c2)C(=O)N1Cc1cccc(O)c1` [Compound 7, (5Z)-5-[(3,4-difluoro-5-hydroxyphenyl)methylidene]-3-[(3-hydroxyphenyl)methyl]-1,3-thiazolidine-2,4-dione], in data set [1], the IC50 was 1 to 5 µM.

In the case of `O=C1S/C(=C\c2ccc(F)c(O)c2F)C(=O)N1Cc1cccc(O)c1` [Compound 6, (Z)-5(2,4-difluoro-3-hydroxybenzylidene)-3-(3-hydroxybenzyl)thiazolidine-2,4-dione], the IC50 in data set [1] was in the range of 1 to 5 µM.

Take `O=C1S/C(=C\c2c(F)cc(F)c(O)c2F)C(=O)N1Cc1cccc(O)c1` [Compound 4, (Z)-3-(3-hydroxybenzyl)-5-(2,4,6-trifluoro-3-hydroxybenzylidene)thiazolidine-2,4-dione]: the IC50 in data set [1] was 1 to 5 µM.

As for `O=C1S/C(=C\c2ccc(F)c(O)c2)C(=O)N1Cc1cccc(OC(F)(F)F)c1` [Compound 16, (Z)-5-(4-fluoro-3-hydroxybenzylidene)-3-(3-(trifluoromethoxy)benzyl) thiazolidine-2,4-dione], in data set [1], the concentration for half-maximal inhibition (IC50) was over 5 µM.
